In patent publication US20070074295A1 (priority 2000, published 2007):

Assays:
rats = assay: Effect of haloperidol and clozapine on PCP induced hypofunction: LCGU; type: in vivo, rat; details: for LCGU, Au layer I / LCGU, Au layers II, III&IV / LCGU, Au layers V & VI / LCGU, AuD layer I / LCGU, AuD layers II, III&IV / LCGU, AuD layers V & VI / LCGU, CA1 molecular layer / LCGU, CA1 pyramidal cell layer / LCGU, CA1 stratum oriens / LCGU, CA1 stratum radiatum / LCGU, CA3 molecular layer / LCGU, CA3 pyramidal cell layer / LCGU, CA3 stratum oriens / LCGU, CA3 stratum radiatum / LCGU, DLL / LCGU, MD / LCGU, PrL layer I / LCGU, PrL layers II & III / LCGU, PrL layers V & VI / LCGU, Rt / LCGU, VLL / LCGU, cochlear nucleus / LCGU, mO layer I / LCGU, mO layers II & III / LCGU, mO layers V & VI: day 29
Excerpt: The effect of antipsychotics on the positive symptoms is less well studied regarding imaging studies.

CIRL1 mRNA = assay: Semi-quantitative RT-PCR, prefrontal cortex, chronic PCP and antipsychotic treatment; type: in vivo, rat; details: chronic PCP plus antipsychotic
Procedure: FIG. 14 illustrates the level of CIRL1 mRNA present in the prefrontal cortex of rat brain following chronic PCP and antipsychotic treatment (n=12 for all groups apart from veh-veh where n=11). […] and […] (SEQ ID NOS: 25-26) were the primer sequences used to amplify this product.
(§1) RT-PCR for specific isoforms of CIRL was then conducted in the prefrontal cortex.
(§2) 1 ml of lysis buffer (Qiagen), including 1% β-mercaptoethanol, was added to approximately 50-100 mg of brain tissue. Tissue samples were homogenised using a ribolyser (Hybaid) with 3 bursts at 6.5 g lasting 20 seconds each. Samples were then spun at room temperature in a microfuge for 3 minutes. The supernatant was removed and re-spun for a further 3 minutes. The supernatant was decanted to a fresh tube to which an equal volume of 70% ethanol was added. The remaining RNA isolation procedure was carried out according to the manufacturer's protocol (Qiagen).
(§3) Synthesis of cDNA was carried out according to manufacturers protocols (Life Technologies). Briefly 3-5μg of total RNA was reverse transcribed using oligo dT priming. After cDNA synthesis, samples were aliquoted and stored at −70° C. […]
(§4) Alterations in expression levels were determined by semi-quantitative PCR. […] Samples were removed over 4 consecutive cycles, however, the first cycle to be removed sometimes varied depending on when logarithmic amplification was detected. […]

CIRL2 variant AB mRNA = assay: as above; type: in vivo, rat; details: chronic PCP plus antipsychotic
Procedure: FIG. 15 illustrates the level of CIRL2 variant AB mRNA present in the prefrontal cortex of rat brain following chronic PCP and antipsychotic treatment (n=12 for all groups apart from veh-veh where n=11). […] and […] (SEQ ID NOS: 27-28) were the primer sequences used to amplify this product.
as §1, §2, §3, §4

CIRL3 variant AA mRNA = assay: as above; type: in vivo, rat; details: chronic PCP plus antipsychotic
Procedure: FIG. 16 illustrates the level of CIRL3 variant AA mRNA present in the prefrontal cortex of rat brain following chronic PCP and antipsychotic treatment (n=12 for all groups apart from veh-veh where n=11) […] and […] (SEQ ID NOS: 29-30) were the primer sequences used to amplify this product.
as §1, §2, §3, §4

TNFα mRNA = assay: RT-PCR for TNFα mRNA in rat prefrontal cortex; type: in vivo; details: chronic PCP in combination with haloperidol vs chronic PCP group
Procedure: Four groups of rats were treated with (a) chronic PCP, (b) chronic vehicle (control), (c) chronic PCP plus chronic clozapine (as above) or (d) chronic PCP plus chronic haloperidol (as above). The tissue was processed for RNA extraction and RT-PCP as described above, using primers specific for TNFα mRNA.

[1] = i.p. PCP 2.58 mgkg^−1, minipump vehicle, clozapine 20 or haloperidol 1 mgkg^−1/day
[2] = i.p. vehicle, minipump clozapine 20 or haloperidol 1 mgkg^−1/day
[3] = antipsychotic in conjunction with PCP 2.58 mgkg^−1
[4] = clozapine or haloperidol via minipump

## CN1CCN(C2=Nc3cc(Cl)ccc3Nc3ccccc32)CC1 [clozapine]
rats; [1]
  LCGU, Au layer I: 140 ± 5 μmol/100 g/min
  LCGU, Au layers II, III&IV: 166 ± 6 μmol/100 g/min
  LCGU, Au layers V & VI: 118 ± 4 μmol/100 g/min
  LCGU, AuD layer I: 135 ± 5 μmol/100 g/min
  LCGU, AuD layers II, III&IV: 152 ± 6 μmol/100 g/min
  LCGU, AuD layers V & VI: 107 ± 4 μmol/100 g/min
  LCGU, CA1 molecular layer: 87 ± 2 μmol/100 g/min
  LCGU, CA1 pyramidal cell layer: 62 ± 2 μmol/100 g/min
  LCGU, CA1 stratum oriens: 57 ± 2 μmol/100 g/min
  LCGU, CA1 stratum radiatum: 66 ± 3 μmol/100 g/min
  LCGU, CA3 molecular layer: 84 ± 2 μmol/100 g/min
  LCGU, CA3 pyramidal cell layer: 69 ± 3 μmol/100 g/min
  LCGU, CA3 stratum oriens: 62 ± 1 μmol/100 g/min
  LCGU, CA3 stratum radiatum: 69 ± 2 μmol/100 g/min
  LCGU, DLL: 108 ± 5 μmol/100 g/min
  LCGU, MD: 113 ± 3 μmol/100 g/min
  LCGU, PrL layer I: 118 ± 6 μmol/100 g/min
  LCGU, PrL layers II & III: 134 ± 7 μmol/100 g/min
  LCGU, PrL layers V & VI: 104 ± 5 μmol/100 g/min
  LCGU, Rt: 81 ± 2 μmol/100 g/min
  LCGU, VLL: 118 ± 5 μmol/100 g/min
  LCGU, cochlear nucleus: 119 ± 8 μmol/100 g/min
  LCGU, mO layer I: 104 ± 5 μmol/100 g/min
  LCGU, mO layers II & III: 112 ± 6 μmol/100 g/min
  LCGU, mO layers V & VI: 115 ± 5 μmol/100 g/min
rats; [2]
  LCGU, Au layer I: 136 ± 6 μmol/100 g/min
  LCGU, Au layers II, III&IV: 169 ± 6 μmol/100 g/min
  LCGU, Au layers V & VI: 126 ± 4 μmol/100 g/min
  LCGU, AuD layer I: 136 ± 4 μmol/100 g/min
  LCGU, AuD layers II, III&IV: 154 ± 5 μmol/100 g/min
  LCGU, AuD layers V & VI: 115 ± 6 μmol/100 g/min
  LCGU, CA1 molecular layer: 102 ± 5 μmol/100 g/min
  LCGU, CA1 pyramidal cell layer: 78 ± 4 μmol/100 g/min
  LCGU, CA1 stratum oriens: 72 ± 4 μmol/100 g/min
  LCGU, CA1 stratum radiatum: 80 ± 4 μmol/100 g/min
  LCGU, CA3 molecular layer: 96 ± 4 μmol/100 g/min
  LCGU, CA3 pyramidal cell layer: 81 ± 4 μmol/100 g/min
  LCGU, CA3 stratum oriens: 74 ± 4 μmol/100 g/min
  LCGU, CA3 stratum radiatum: 83 ± 5 μmol/100 g/min
  LCGU, DLL: 99 ± 5 μmol/100 g/min
  LCGU, MD: 124 ± 6 μmol/100 g/min
  LCGU, PrL layer I: 119 ± 4 μmol/100 g/min
  LCGU, PrL layers II & III: 139 ± 5 μmol/100 g/min
  LCGU, PrL layers V & VI: 98 ± 4 μmol/100 g/min
  LCGU, Rt: 95 ± 4 μmol/100 g/min
  LCGU, VLL: 109 ± 5 μmol/100 g/min
  LCGU, cochlear nucleus: 108 ± 7 μmol/100 g/min
  LCGU, mO layer I: 93 ± 4 μmol/100 g/min
  LCGU, mO layers II & III: 109 ± 4 μmol/100 g/min
  LCGU, mO layers V & VI: 106 ± 5 μmol/100 g/min

## O=C(CCCN1CCC(O)(c2ccc(Cl)cc2)CC1)c1ccc(F)cc1 [haloperidol]
rats; [3]
  effect on PCP hypofunction in medial orbital cortex, prelimbic cortex, CA1, reticular nucleus of the thalamus: failed to modulate the hypofunction produced by PCP
  effect on PCP-induced hypofunction in auditory system (AuD, lateral lemniscus, cochlear nucleus): reversed the PCP-induced hypofunction
rats; [4]
  LCGU in auditory system (AuD, lateral lemniscus, cochlear nucleus), drug alone: did not produce a significant hypofunction
  LCGU in medial orbital cortex, prelimbic cortex, CA1, reticular nucleus of the thalamus, drug alone: produced a metabolic hypofunction
rats; [1]
  LCGU, Au layer I: 141 ± 8 μmol/100 g/min
  LCGU, Au layers II, III&IV: 174 ± 10 μmol/100 g/min
  LCGU, Au layers V & VI: 117 ± 7 μmol/100 g/min
  LCGU, AuD layer I: 133 ± 7 μmol/100 g/min
  LCGU, AuD layers II, III&IV: 156 ± 10 μmol/100 g/min
  LCGU, AuD layers V & VI: 106 ± 6 μmol/100 g/min
  LCGU, CA1 molecular layer: 97 ± 4 μmol/100 g/min
  LCGU, CA1 pyramidal cell layer: 70 ± 4 μmol/100 g/min
  LCGU, CA1 stratum oriens: 64 ± 4 μmol/100 g/min
  LCGU, CA1 stratum radiatum: 74 ± 4 μmol/100 g/min
  LCGU, CA3 molecular layer: 94 ± 6 μmol/100 g/min
  LCGU, CA3 pyramidal cell layer: 74 ± 5 μmol/100 g/min
  LCGU, CA3 stratum oriens: 69 ± 5 μmol/100 g/min
  LCGU, CA3 stratum radiatum: 76 ± 5 μmol/100 g/min
  LCGU, DLL: 107 ± 2 μmol/100 g/min
  LCGU, MD: 119 ± 6 μmol/100 g/min
  LCGU, PrL layer I: 115 ± 3 μmol/100 g/min
  LCGU, PrL layers II & III: 134 ± 4 μmol/100 g/min
  LCGU, PrL layers V & VI: 97 ± 3 μmol/100 g/min
  LCGU, Rt: 80 ± 1 μmol/100 g/min
  LCGU, VLL: 110 ± 3 μmol/100 g/min
  LCGU, cochlear nucleus: 115 ± 2 μmol/100 g/min
  LCGU, mO layer I: 105 ± 4 μmol/100 g/min
  LCGU, mO layers II & III: 116 ± 4 μmol/100 g/min
  LCGU, mO layers V & VI: 119 ± 4 μmol/100 g/min
rats; [2]
  LCGU, Au layer I: 142 ± 9 μmol/100 g/min
  LCGU, Au layers II, III&IV: 167 ± 9 μmol/100 g/min
  LCGU, Au layers V & VI: 112 ± 9 μmol/100 g/min
  LCGU, AuD layer I: 139 ± 9 μmol/100 g/min
  LCGU, AuD layers II, III&IV: 153 ± 9 μmol/100 g/min
  LCGU, AuD layers V & VI: 108 ± 7 μmol/100 g/min
  LCGU, CA1 molecular layer: 92 ± 5 μmol/100 g/min
  LCGU, CA1 pyramidal cell layer: 63 ± 4 μmol/100 g/min
  LCGU, CA1 stratum oriens: 59 ± 4 μmol/100 g/min
  LCGU, CA1 stratum radiatum: 66 ± 4 μmol/100 g/min
  LCGU, CA3 molecular layer: 90 ± 4 μmol/100 g/min
  LCGU, CA3 pyramidal cell layer: 71 ± 4 μmol/100 g/min
  LCGU, CA3 stratum oriens: 64 ± 4 μmol/100 g/min
  LCGU, CA3 stratum radiatum: 73 ± 1 μmol/100 g/min
  LCGU, DLL: 92 ± 4 μmol/100 g/min
  LCGU, MD: 117 ± 5 μmol/100 g/min
  LCGU, PrL layer I: 114 ± 4 μmol/100 g/min
  LCGU, PrL layers II & III: 131 ± 4 μmol/100 g/min
  LCGU, PrL layers V & VI: 93 ± 4 μmol/100 g/min
  LCGU, Rt: 86 ± 4 μmol/100 g/min
  LCGU, VLL: 106 ± 5 μmol/100 g/min
  LCGU, cochlear nucleus: 99 ± 9 μmol/100 g/min
  LCGU, mO layer I: 93 ± 4 μmol/100 g/min
  LCGU, mO layers II & III: 106 ± 4 μmol/100 g/min
  LCGU, mO layers V & VI: 102 ± 4 μmol/100 g/min
CIRL1 mRNA
  effect on PCP-induced reductions in the level of CIRL1 mRNA: not
CIRL2 variant AB mRNA
  effect on PCP-induced reductions in CIRL2: reversed
CIRL3 variant AA mRNA
  effect on PCP-induced reductions in CIRL3: reversed
TNFα mRNA
  levels of TNFα in rat prefrontal cortex: significantly different from the chronic PCP group
